How the values were obtained:
[1] = in words, prior-art prodrug of WO200213810; cited from earlier work
[2] = in words, prior-art prodrug of WO200213810; cited from earlier work; remark: listed apart in the source
Kunming mice = conditions: tail vein injection; for Median effective dose (ED50): disappearance of FRR; for disappearance time of FRR (onset time) / recovery time (recovery of FRR): during the determination of ED50; for anesthetic effect: in words
Protocol: Median effective doses (ED50) of propofol hydroxybutyrate phosphate disodium salt and Diprivan™ were determined by the up-and-down method. In the test, the mice were injected with the drugs through the tail veins, with the disappearance of the forepaw righting reflex (FRR) of the mice as a judgment index of the end point of anesthesia; the recovery of FRR of the mice as an index of recovery from anesthesia.
In the test, the mice were injected with the drugs through the tail veins, with the disappearance of the forepaw righting reflex (FRR) of the mice as a judgment index of the end point of anesthesia; the recovery of FRR of the mice as an index of recovery from anesthesia.

Row | Compound | water solubility [1] | stability in aqueous solution [2] | Median effective dose (ED50) (Kunming mice) [mg/kg] | disappearance time of FRR (onset time) (Kunming mice) [s] | recovery time (recovery of FRR) (Kunming mice) [s] | anesthetic effect (Kunming mice)
1 | CC(C)c1cccc(C(C)C)c1OC(=O)CCC(=O)[O-].[Na+] [propofol succinic acid monoester sodium salt] | high water-solubility | unstable in aqueous solution | – | – | – | –
2 | propofol w-hydroxybutyrate phosphate disodium salt | – | – | 130 | 150.6 ± 42.1 | 480.6 ± 124.3 | definite and reversible anesthetic effect
3 | propofol w-hydroxyvalerate phosphate disodium salt | – | – | 152 | 180.8 ± 45.6 | 500.1 ± 114.6 | definite and reversible anesthetic effect
